Molecules are shown by their SMILES. Calls of active or inactive are those of the source. No cut-off for these calls is given here.

Assay [1] concerns SH-SY5Y. The assay can be described thus: Growth inhibition of human SHSY5Y cells assessed as viable cells after 48 hrs by Trypan blue dye exclusion test. In kind it is functional, cell-based.
The test system of assay [2] is SH-SY5Y. Briefly: Reduction of hydrogen peroxide-induced apoptotic cell death in human SHSY5Y cells after 12 hrs. Type of assay: functional. Further details: scale not given: the % may be the effect or the level left.
For assay [3], the system named is SH-SY5Y. Briefly: Elevation of phosphorylated JNk level in hydrogen peroxide-treated human SHSY5Y cells at 30 uM after 3 hrs by Western blot analysis. Type of assay: functional, cell-based. A general note: Immunoblotting shows a protein as a band on a membrane.
Assay [4] deals with SH-SY5Y. The assay can be described thus: Elevation of phosphorylated p38 level in hydrogen peroxide-treated human SHSY5Y cells at 30 uM after 3 hrs by Western blot analysis. Type of assay: functional, cell-based.
Assay [5] has as its system SH-SY5Y. The assay can be described thus: Elevation of phosphorylated ERK level in hydrogen peroxide-treated human SHSY5Y cells at 30 uM after 3 hrs by Western blot analysis. Type of assay: functional, cell-based.
In assay [6] the test system is SH-SY5Y. The assay can be described thus: Reduction of hydrogen peroxide-induced apoptotic cell death in human SHSY5Y cells assessed as DNA ladder formation after 12 hrs. Type of assay: functional, cell-based.

On to `COc1ccc(-c2cc(=O)c3c(O)c(OC)c(OC)c(OC)c3o2)cc1OC` [5-DEMETHYLNOBILETIN], for which the IC50 (commonly the midpoint of a concentration-inhibition curve) in the assay on SH-SY5Y [1] turned out to be 32.5 µM.
In the assay on SH-SY5Y [2], `COc1ccc(-c2cc(=O)c3c(OC)c(OC)c(OC)c(OC)c3o2)cc1OC` [NOBILETIN] yielded an Activity of 30%. The outcome with SH-SY5Y [3], with SH-SY5Y [4], with SH-SY5Y [5] and with SH-SY5Y [6] was Active.
On to `COc1ccc(-c2cc(=O)c3c(OC)c(OC)c(OC)c(OC)c3o2)cc1` [TANGERETIN], for which the concentration for half-maximal inhibition (IC50) in the assay with SH-SY5Y [1] came out at 41.2 µM.
